The subject of assay [1] is H2405 cells. Kind of assay: H2405 Cell Proliferation Assay (1). Type of assay: cell-based. The settings on record: Homo sapiens, NCI-H2405. Put shortly:
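Viability was read by resazurin reduction (ex 540 nm, em 600 nm; 5-6 h with 40 μL of 440 μM stock) after 67-72 h compound exposure at 37 °C.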

For assay [2], the target named is B-Raf (V600E) (SEQ. ID NO: 4) kinase (Homo sapiens (Human), UniProt P15056, V600E). Kind of assay: Biochemical Assay for B-Raf (V600E) (1). To be noted: Table J, BRAF V600E, assay version (1); read-out: BRAF VE (1) IC50. The essentials: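 Serially diluted compounds tested against 0.03 nM enzyme with 30.1 nM MEK substrate and 1 mM ATP (Tris pH 7.5, 15 mM MgCl2), ATP use coupled to NADH loss via PK/LDH. A340 monitored continuously 6 h, 30 °C; IC50 fitted (four-parameter) from the 3–4 h rate versus no-compound and known-inhibitor controls.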

Assay [3] deals with B-Raf kinase (SEQ. ID NO: 2) (Homo sapiens (Human), UniProt P15056). Kind of assay: Biochemical Assay for B-Raf (1). To be noted: Table J, assay version (1); read-out: BRAF (1) IC50. Put shortly: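 IC50 derived by four-parameter sigmoidal fit of percent inhibition, normalised to uninhibited and reference-inhibitor controls, using reaction rates over 4–5 h. Coupled spectrophotometric readout (NADH loss at 340 nm, 6 h, 30° C.); 1 mM ATP, 30.1 nM MEK, 0.13 nM B-Raf, pH 7.5 Tris buffer, 1% DMSO.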

Assay [4] has as its target C-Raf kinase (SEQ. ID NO: 3) (Homo sapiens (Human), UniProt P04049, Y340D/Y341D). The experiment in a line: Biochemical Assay for C-Raf (1). To be noted: Table J, assay version (1); read-out: CRAF (1) IC50. The essentials:
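IC50 values come from a four-parameter fit of percent inhibition, using the reaction rate over 4–5 h of a 6 h continuous 340 nm read at 30 °C. The enzyme mix was C-Raf 0.43 nM, MEK substrate 30.1 nM and ATP 1 mM, in a PK/LDH NADH-coupled format in Tris pH 7.5 with 1% DMSO.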

14 compounds from patent publication US12319655B2, “RAF kinase inhibitors and methods of use thereof” (Deciphera Pharmaceuticals, LLC, priority 2021, dated 2025) can be followed below.

Each structure is given as a SMILES string. A value given as a limit tells only on which side of the number the result lay.

Chain of B-Raf (V600E) (SEQ. ID NO: 4) kinase (P15056 416-766 V600E): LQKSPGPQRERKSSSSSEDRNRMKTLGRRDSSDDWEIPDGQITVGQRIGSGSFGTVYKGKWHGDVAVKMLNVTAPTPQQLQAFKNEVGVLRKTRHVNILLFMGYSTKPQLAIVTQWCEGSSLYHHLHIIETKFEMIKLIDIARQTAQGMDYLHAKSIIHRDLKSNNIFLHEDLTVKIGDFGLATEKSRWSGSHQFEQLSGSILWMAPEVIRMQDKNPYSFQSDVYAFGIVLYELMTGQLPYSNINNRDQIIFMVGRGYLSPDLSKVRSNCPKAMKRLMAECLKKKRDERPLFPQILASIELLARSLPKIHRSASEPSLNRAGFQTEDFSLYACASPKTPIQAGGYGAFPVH
Chain of C-Raf kinase (SEQ. ID NO: 3) (P04049 307-648 Y340D/Y341D): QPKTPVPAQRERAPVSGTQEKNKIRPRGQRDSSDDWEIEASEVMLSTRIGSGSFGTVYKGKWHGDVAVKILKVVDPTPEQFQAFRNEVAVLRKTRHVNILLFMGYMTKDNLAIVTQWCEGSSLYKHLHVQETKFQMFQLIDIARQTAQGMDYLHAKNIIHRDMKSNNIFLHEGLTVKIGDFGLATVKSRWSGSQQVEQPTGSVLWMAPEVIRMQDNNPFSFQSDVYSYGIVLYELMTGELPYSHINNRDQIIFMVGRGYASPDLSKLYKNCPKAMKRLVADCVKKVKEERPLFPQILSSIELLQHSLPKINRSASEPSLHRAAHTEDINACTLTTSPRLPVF
Chain of B-Raf kinase (SEQ. ID NO: 2) (P15056 416-766): as the sequence (P15056 416-766 V600E) above, with E185V counted along it

Turning to `Cc1ncc(NC(=O)c2cnnc(C3CC3)c2)cc1-c1ccnc(-c2ccnc(NC(=O)C3CC3)c2)n1` [Example 278], the IC50 in assay [1] was 1 to 10 µM; in assay [2] it was no more than 0.1 µM; in assay [3], no more than 0.1 µM; in assay [4], no more than 0.1 µM.
For the compound `Cc1ccc(NC(=O)c2ccnc(C3CC3)c2)cc1-c1ccnc(-c2ccnc(NC(=O)C3CC3)c2)n1` [Example 229], the IC50 in assay [1], in assay [2], in assay [3] and in assay [4] was no more than 0.1 µM throughout.
In the case of `CNC(=O)c1cc(-c2cc(-c3cc(NC(=O)c4ccnc(C(C)(C)OC)c4)ccc3C)ccn2)ccn1` [Example 264], the IC50 in assay [1] was 0.1 to 0.5 µM; in assay [2] it was no more than 0.1 µM; in assay [3], 0.1 to 0.5 µM; in assay [4] it was no more than 0.1 µM.
Take `CNC(=O)c1cc(-c2ccnc(-c3cc(NC(=O)c4ccnc(C(C)(C)OC)c4)ccc3C)n2)ccn1` [Example 268]: the IC50 in assay [1] is 0.1 to 0.5 µM; in assay [2], no more than 0.1 µM; in assay [3], 0.1 to 0.5 µM; in assay [4], 0.1 to 0.5 µM.
Turning to `CNC(=O)c1cc(-c2ccnc(-c3cc(NC(=O)c4ccnc(C(C)(C)C#N)c4)cnc3C)n2)ccn1` [Example 199], the IC50 in assay [1] was 0.1 to 0.5 µM; in assay [2] it was no more than 0.1 µM; in assay [3], 0.5 to 1 µM; in assay [4], 0.1 to 0.5 µM.
As to `Cc1ccc(NC(=O)c2ccnc(C(C)(C)C#N)c2)cc1-c1cncc(-c2cc(NC(=O)C3CC3)ncn2)c1` [Example 224], the IC50 in assay [1], in assay [2], in assay [3] and in assay [4] was no more than 0.1 µM each time.
For the compound `Cc1ccc(NC(=O)c2ccnc(C(C)(C)C#N)c2)cc1-c1cccc(-c2cc(N)ncn2)c1` [Example 267], the IC50 in assay [1] is 0.5 to 1 µM; in assay [2], no more than 0.1 µM; in assay [3], no more than 0.1 µM; in assay [4], no more than 0.1 µM.
Regarding `Cc1ncc(NC(=O)c2ccnc(C(C)(C)C#N)c2)cc1-c1cc(-c2cc(NC(=O)C3CC3)ncn2)cc(C2CC2)c1` [Example 218], the IC50 in assay [1] is 0.1 to 0.5 µM; in assay [2] it was no more than 0.1 µM; in assay [3] it was 0.1 to 0.5 µM; in assay [4], no more than 0.1 µM.
On to `Cc1ccc(NC(=O)c2cnnc(C3CC3)c2)cc1-c1ccnc(-c2ccnc(NC(=O)C3CC3)c2)n1` [Example 250], for which the IC50 was 0.1 to 0.5 µM in assay [1], no more than 0.1 µM in assay [2], no more than 0.1 µM in assay [3] and no more than 0.1 µM in assay [4].
As to `CNC(=O)c1cc(-c2ccnc(-c3cc(NC(=O)c4ccnc(C(C)(C)C#N)c4)c(F)cc3C)n2)ccn1` [Example 242], the IC50 was 0.1 to 0.5 µM in assay [1], no more than 0.1 µM in assay [2], 0.1 to 0.5 µM in assay [3] and 0.1 to 0.5 µM in assay [4].
With `CC(C)(C#N)c1cc(C(=O)Nc2ccc(C#N)c(-c3cccc(-c4cc(NC(=O)C5CC5)ncn4)c3)c2)ccn1` [Example 240], the IC50 is 0.1 to 0.5 µM in assay [1], no more than 0.1 µM in assay [2], 0.1 to 0.5 µM in assay [3] and no more than 0.1 µM in assay [4].
Turning to `Cc1ccc(NC(=O)c2ccnc(C(C)(C)F)c2)cc1-c1ccnc(-c2ccnc(NC(=O)C3CC3)c2)n1` [Example 186], the IC50 in assay [1], in assay [2], in assay [3] and in assay [4] was no more than 0.1 µM in each case.
Turning to `COC(C)(C)C(=O)Nc1cc(-c2cc(-c3cc(NC(=O)c4ccnc(C(C)(C)C#N)c4)ccc3C)ccn2)ccn1` [Example 237], the IC50 in assay [1] was 0.5 to 1 µM; in assay [2] it was no more than 0.1 µM; in assay [3], 0.1 to 0.5 µM; in assay [4], 0.1 to 0.5 µM.
Consider `Cc1ncc(NC(=O)c2cnnc(C3CC3)c2)cc1-c1ccnc(-c2ccnc(NC(=O)C3CC3)c2)c1` [Example 254], for which the IC50 in assay [1] was 1 to 10 µM; in assay [2], no more than 0.1 µM; in assay [3], no more than 0.1 µM; in assay [4] it was no more than 0.1 µM.

A word on the IC50: it is the concentration needed to halve the response being measured.
